What follows are compounds tested on U251-MG cells (assay: Half-maximal cell-inhibitory concentration on U251-MG cells (CCK-8)). Settings: Homo sapiens, U-251, U251-MG cells (DHX33-overexpressing cancer cell strain), 48 hours, read-out: IC50 (half-maximal inhibitory concentrations of compounds on U251-MG cells).
Assay type: cell-based
Method: U251-MG cells were purchased from the cell bank of the Chinese Academy of Sciences. Cells were cultured in MEM medium containing 10% fetal bovine serum (FBS), 2 mM L-glutammie, streptomycmn and penicillin. The growth conditions were set as follows: a humidified cell incubator (37° C., 5% CO2). Cells were passaged every 3 days and were discarded after 10 passages.
U251-MG cells (a […]-overexpressing cancer cell strain) were seeded on a 96-well plate at 1×10^4 cells/100 μl/well. After the cells were completely attached, the compounds were added to the cell culture medium at a concentration of 5 nM, 10 nM, 25 nM, 50 nM, 100 nM, […], 500 nM, 1000 nM, 2000 nM, […] or 20 μM, and the resulting mixture was uniformly mixed with a multichannel pipette. After the cells were incubated with the compound for 48 hours, CCK-8 reagent (Yeasen Biotechnology (Shanghai) Co., Ltd.) was added to the medium in the 96-well plate in accordance with the standard procedure. After being incubated for 2 hours, the plate was read with a microplate reader (OD=450 nm). The experiment was repeated three times, the inhibition curve of the compound at different concentrations was plotted, and the half-maximal inhibitory concentration (IC50) of the compound was calculated.

Row | Structure (SMILES) | IC50 [µM]
1 | Cc1ccc2nc(/C(C#N)=C/c3cc(C)n(-c4oc(C)c(C)c4C#N)c3C)[nH]c2c1 [AB24203, (E)-2-(3-(2-cyano-2-(6-methyl-1H-benzo[d]imidazol-2-yl]vinyl)-2,5-dimethyl-1H-pyrrol-1-yl)-4,5-dimethylfuran-3-carbonitrile] | 1 to 5
2 | CCOC(=O)c1ccc2nc(/C(C#N)=C/c3cc(C)n(-c4oc(C)c(C)c4C#N)c3C)[nH]c2c1 [AB24208, ethyl (E)-2-(1-cyano-2-(1-(3-cyano-4,5-dimethylfuran-2-yl)-2,5-dimethyl-1H-pyrrol-3-yl)vinyl)-1H-benzo[d]imidazole-6-carboxylate] | 5 to 20
3 | Cc1oc(-n2c(C)cc(/C=C(\C#N)c3nc4ccc([N+](=O)[O-])cc4[nH]3)c2C)c(C#N)c1C [AB24217, (E)-2-(3-(2-cyano-2-(6-nitro-1H-benzo[d]imidazol-2-yl)vinyl)-2,5-dimethyl-1H-pyrrol-1-yl)-4,5-dimethylfuran-3-carbonitrile] | 5 to 20
4 | Cc1oc(-n2c(C)cc(/C=C(\C#N)c3nc4ccc(CO)cc4[nH]3)c2C)c(C#N)c1C [AB24225, (E)-2-(3-(2-cyano-2-(6-(hydroxymethyl)-1H-benzo[d]imidazol-2-yl)vinyl)-2,5-dimethyl-1H-pyrrol-1-yl)-4,5-dimethylfuran-3-carbonitrile] | 1 to 5
5 | COc1cc2nc(/C(C#N)=C/c3cc(C)n(-c4oc(C)c(C)c4C#N)c3C)[nH]c2cc1OC [AB24229, (E)-2-(3-(2-cyano-2-(5,6-dimethoxy-1H-benzo[d]imidazol-2-yl)vinyl)-2,5-dimethyl-H-pyrrol-1-yl)-4,5-dimethylfuran-3-carbonitrile] | 1 to 5
6 | Cc1cc(/C=C(\C#N)c2nc3ccccc3[nH]2)c(C)n1-c1cccs1 [AB24233] | 5 to 20
7 | Cc1ccc(-n2c(C)cc(/C=C(\C#N)c3nc4ccccc4[nH]3)c2C)cc1 [AB24237] | 5 to 20
8 | COc1cc2[nH]c(/C(C#N)=C/c3cc(C)n(-c4oc(C)c(C)c4C#N)c3C)nc2cc1F [AB24246, (E)-2-(3-(2-cyano-2-(5-fluoro-6-methoxy-1H-benzo[d]imidazol-2-yl]vinyl)-2,5-dimethyl-1H-pyrrol-1-yl)-4,5-dimethylfuran-3-carbonitrile] | 1 to 5
9 | COC(=O)c1c(-n2c(C)cc(/C=C(\C#N)c3nc4ccccc4[nH]3)c2C)sc(C)c1C [AB24273, methyl (E)-2-(3-(2-(1H-benzo[d]imidazol-2-yl)-2-cyanovinyl)-2,5-dimethyl-1H-pyrrol-1-yl)-4,5-dimethylthiophene-3-carboxylate] | 0.1 to 1
10 | Cc1cc(/C=C(\C#N)c2nc3ccccc3[nH]2)c(C)n1-c1csc(C#N)c1 [AB24276] | 5 to 20
11 | Cc1csc(-n2c(C)cc(/C=C(\C#N)c3nc4ccccc4[nH]3)c2C)c1C#N [AB24277] | 5 to 20
12 | Cc1nn(-c2ccccc2)c(C)c1/C=C(\C#N)c1nc2ccccc2[nH]1 [AB24284, (E)-2-(1H-benzo[d]imidazol-2-yl)-3-(3,5-dimethyl-1-phenyl-1H-pyrazol-4-yl)acrylonitrile] | 5 to 20
13 | Cc1nn(-c2cccc(C(F)(F)F)c2)c(C)c1/C=C(\C#N)c1nc2ccccc2[nH]1 [AB24285, (E)-2-(1H-benzo[d]imidazol-2-yl)-3-(3,5-dimethyl-1-(3-(trifluoromethyl)phenyl)-1H-pyrazol-4-yl)acrylonitrile] | 5 to 20
14 | COc1cc2nc(/C(C#N)=C/c3cc(C)n(-c4ccncc4Cl)c3C)[nH]c2cn1 [AB24289, (E)-3-(1-(3-chloropyridin-4-yl)-2,5-dimethyl-1H-pyrrol-3-yl)-2-(6-methoxy-3H-imidazo[4,5-c]pyridin-2-yl)acryonitrile] | 1 to 5
15 | Cc1nn(-c2ccccc2OC(F)(F)F)c(C)c1/C=C(\C#N)c1nc2ccccc2[nH]1 [AB24290, (E)-2-(1H-benzo[d]imidazol-2-yl)-3-(3,5-dimethyl-1-(2-(trifluoromethoxy)phenyl)-1H-pyrazol-4-yl)acrylonitrile] | 5 to 20
16 | COc1cnc2[nH]c(/C(C#N)=C/c3cc(C)n(-c4sc(C)c(C)c4C#N)c3C)nc2c1 [AB24301, (E)-2-(3-(2-cyano-2-(6-methoxy-3H-imidazo[4,5-b]pyridin-2-yl)vinyl)-2,5-dimethyl-1H-pyrrol-1-yl)-4,5-dimethylthiophene-3-carbonitrile] | 0.1 to 1
17 | COc1cncc2nc(/C(C#N)=C/c3cc(C)n(-c4sc(C)c(C)c4C#N)c3C)[nH]c12 [AB24302, (E)-2-(3-(2-cyano-2-(7-methoxy-1H-imidazo[4,5-c]pyridyl-2-yl)vinyl)-2,5-dimethyl-1H-pyrrol-1-yl)-4,5-dimethylthiophene-3-carbonitrile] | 1 to 5
18 | COc1ccc2nc(/C(C#N)=C/c3cc(C)n(-c4ccccc4C#N)c3C)[nH]c2c1 [AB24307, (E)-2-(3-(2-cyano-2-(6-methoxy-1H-benzo[d]imidazol-2-yl]vinyl)-2,5-dimethyl-1H-pyrrol-1-yl)benzonitrile] | 5 to 20
19 | COc1nccc2nc(/C(C#N)=C/c3cc(C)n(-c4sc(C)c(C)c4C#N)c3C)[nH]c12 [AB24309] | 1 to 5

Results, then the compound that gave them:

Row | IC50 [µM] | Structure (SMILES)
20 | 1 to 5 | Cc1oc(-n2c(C)cc(/C=C(\C#N)c3nc4ccc(Cl)cc4[nH]3)c2C)c(C#N)c1C [AB24201, (E)-2-(3-(2-(6-chloro-1H-benzo[d]imidazol-2-yl)-2-cyanovinyl)-2,5-dimethyl-1H-pyrrol-1-yl)-4,5-dimethylfuran-3-carbonitrile]
21 | 1 to 5 | Cc1oc(-n2c(C)cc(/C=C(\C#N)c3nc4ccc(C(=O)NCCN(C)C)cc4[nH]3)c2C)c(C#N)c1C [AB24206, (E)-2-(1-cyano-2-(1-(3-cyano-4,5-dimethylfuran-2-yl)-2,5-dimethyl-1H-pyrrol-3-yl)vinyl)-N-(2-(dimethylamino)ethyl)-1H-benzo[d]imidazole-6-carboxamide]
22 | 1 to 5 | Cc1oc(-n2c(C)cc(/C=C(\C#N)c3nc4ccc(Br)cc4[nH]3)c2C)c(C#N)c1C [AB24213, (E)-2-(3-(2-(6-bromo-1H-benzo[d]imidazol-2-yl)-2-cyanovinyl)-2,5-dimethyl-1H-pyrrol-1-yl)-4,5-dimethylfuran-3-carbonitrile]
23 | 5 to 20 | Cc1oc(-n2c(C)cc(/C=C(\C#N)c3nc4cc(Cl)c(Cl)cc4[nH]3)c2C)c(C#N)c1C [AB24214, (E)-2-(3-(2-cyano-2-(5,6-dichloro-1H-benzo[d]imidazol-2-yl)vinyl)-2,5-dimethyl-1H-pyrrol-1-yl)-4,5-dimethylfuran-3-carbonitrile]
24 | 5 to 20 | Cc1oc(-n2c(C)cc(/C=C(\C#N)c3nc4ccc(N)cc4[nH]3)c2C)c(C#N)c1C [AB24221, (E)-2-(3-(2-(6-amino-1H-benzo[d]imidazol-2-yl)-2-cyanovinyl)-2,5-dimethyl-1H-pyrrol-1-yl)-4,5-dimethylfiran-3-carbonitrile]
25 | 5 to 20 | Cc1cc(/C=C(\C#N)c2nc3ccccc3[nH]2)c(C)n1-c1ccc(C#N)cc1 [AB24223]
26 | 5 to 20 | Cc1cc(/C=C(\C#N)c2nc3ccccc3[nH]2)c(C)n1-c1ccccc1C#N [AB24227]
27 | 1 to 5 | Cc1oc(-n2c(C)cc(/C=C(\C#N)c3nc4cc(Cl)cc(Cl)c4[nH]3)c2C)c(C#N)c1C [AB24239]
28 | 5 to 20 | Cc1cc(/C=C(\C#N)c2nc3ccccc3[nH]2)c(C)n1-c1ccccn1 [AB24258]
29 | 1 to 5 | COc1cc2[nH]c(/C(C#N)=C/c3cc(C)n(-c4oc(C)c(C)c4C#N)c3C)nc2cc1Br [AB24266, (E)-2-(3-(2-(5-bromo-6-methoxy-1H-benzo[d]imidazol-2-yl]-2-cyanovinyl)-2,5-dimethyl-1H-pyrrol-1-yl)-4,5-dimethylfuran-3-carbonitrile]
30 | 5 to 20 | CC(=O)Nc1ccc(-n2c(C)cc(/C=C(\C#N)c3nc4ccccc4[nH]3)c2C)cc1 [AB24267]
31 | 1 to 5 | COc1ccc2nc(/C(C#N)=C/c3cc(C)n(-c4oc(C)c(C)c4C#N)c3C)[nH]c2n1 [AB24281, (E)-2-(3-(2-cyano-2-(5-methoxy-3H-imidazo[4,5-b]pyridin-2-yl)vinyl)-2,5-dimethyl-1H-pyrrol-1-yl)-4,5-dimethylfuran-3-carbonitrile]
32 | 1 to 5 | Cc1oc(-n2c(C)cc(/C=C(\C#N)c3nc4cc5c(cc4[nH]3)OCCO5)c2C)c(C#N)c1C [AB24287, (E)-2-(3-(2-cyano-2-(6,7-dihydro-1H-[1,4]dioxin[2′,3′: 4,5]benzo[1,2-d]imidazol-2-yl)vinyl)-2,5-dimethyl-1H-pyrrol-1-yl)-4,5-dimethylfuran-3-carbonitrile]
33 | 1 to 5 | COc1cc2nc(/C(C#N)=C/c3cc(C)n(-c4ccncc4C)c3C)[nH]c2cn1 [AB24295, (E)-3-(2,5-dimethyl-1-(3-methylpyridin-4-yl)-1H-pyrrol-3-yl)-2-(6-methoxy-3H-imidazo[4,5-c]pyridin-2-yl)acrylonitrile]
34 | 1 to 5 | COc1cc2nc(/C(C#N)=C/c3cc(C)n(-c4ccncc4F)c3C)[nH]c2cn1 [AB24300, (E)-3-(1-(3-fluoropyridin-4-yl)-2,5-dimethyl-1H-pyrrol-3-yl)-2-(6-methoxy-3H-imidazo[4,5-c]pyridin-2-yl)acrylonitrile]
35 | < 0.1 | COc1cc2nc(/C(C#N)=C/c3cc(C)n(-c4sc(C)c(C)c4C#N)c3C)[nH]c2cn1 [AB24308, (E)-2-(3-(2-cyano-2-(6-methoxy-3H-imidazo[4,5-c]pyridin-2-yl)vinyl)-2,5-dimethyl-1H-pyrrol-1-yl)-4,5-dimethylthiophene-3-carbonitrile]
